Earlier results on four molecules are cited in patent publication US20120035270A1, “PAEDIATRIC SOLUTIONS COMPRISING A BETA-BLOCKER” (priority 2009, published 2012).

For data set [1], the system named is B. Subtilis, S. Aureus and E. Coli. The following applies: Takahashi et al. 1983.
Data set [2] relates to B. Subtilis. The following applies: growth of B. Subtilis.
Data set [3] concerns E. Coli. The note with it: growth of E. Coli.
Data set [4] relates to S. Aureus. The following applies: growth of S. Aureus.
For data set [5], the system named is Infantile capillary hemangiomas (IH). The note with it: severe hemangiomas of infancy, Léauté-Labrèze et al. 2008.

On to `CC(C)(C)NC[C@H](O)COc1nsnc1N1CCOCC1` [Timolol], for which, in data set [1], the antimicrobial effects entry was “do not have these antimicrobial effects”.

As for `CC(=O)c1cc2cccc(OCC(O)CNC(C)C)c2o1` (stereo not drawn) [befunolol], the antimicrobial effects entry in data set [1] is “do not have these antimicrobial effects”.

With `Cc1ccc(Cl)c(OCC(O)CNC(C)(C)C)c1` (stereo not drawn) [bupranolol], the minimum inhibitory concentration in data set [2] is recorded as 0.1%; in data set [3], 0.05%; in data set [4] it was 0.05%. For the molecule `CC(C)NCC(O)COc1cccc2ccccc12` (stereo not drawn) [propranolol, 1-(isopropylamino)-3-(naphthalen-1-yloxy)propan-2-ol], the “control and treatment of the growth of IH” value in data set [5] is “could efficiently be used to control and even to treat the growth of IH”.
